The results in this text go back to publication PMC9008576, “Characterization of Agarolytic Pathway in a Terrestrial Bacterium Cohnella sp. LGH” (Frontiers in Microbiology, 2022).

Experiment [1] concerns T1, CL5012.
T1 construct: pET29a (NdeI/XhoI), E. coli BL21(DE3) pLysS, Ni-NTA (C-terminal His tag likely); GH117
Nature of the experiment: L-AHG release, non-linear regression. The experiment is classed as biochemical, Cohnella sp. LGH. The following applies: 10 mM Tris-HCl pH 8.0, 35°C, 10 min, 0.5–7.5 mg/ml substrate.

For experiment [2], the target named is T2, AgWH2A (Agarivorans gilvus, UniProt A0A2Z4WWH8).
T2 construct: gene lacZ; pET29a (SalI/XhoI), E. coli BL21(DE3) pLysS, Ni-NTA (vector tags kept)
T2 sequence (A0A2Z4WWH8 1-753): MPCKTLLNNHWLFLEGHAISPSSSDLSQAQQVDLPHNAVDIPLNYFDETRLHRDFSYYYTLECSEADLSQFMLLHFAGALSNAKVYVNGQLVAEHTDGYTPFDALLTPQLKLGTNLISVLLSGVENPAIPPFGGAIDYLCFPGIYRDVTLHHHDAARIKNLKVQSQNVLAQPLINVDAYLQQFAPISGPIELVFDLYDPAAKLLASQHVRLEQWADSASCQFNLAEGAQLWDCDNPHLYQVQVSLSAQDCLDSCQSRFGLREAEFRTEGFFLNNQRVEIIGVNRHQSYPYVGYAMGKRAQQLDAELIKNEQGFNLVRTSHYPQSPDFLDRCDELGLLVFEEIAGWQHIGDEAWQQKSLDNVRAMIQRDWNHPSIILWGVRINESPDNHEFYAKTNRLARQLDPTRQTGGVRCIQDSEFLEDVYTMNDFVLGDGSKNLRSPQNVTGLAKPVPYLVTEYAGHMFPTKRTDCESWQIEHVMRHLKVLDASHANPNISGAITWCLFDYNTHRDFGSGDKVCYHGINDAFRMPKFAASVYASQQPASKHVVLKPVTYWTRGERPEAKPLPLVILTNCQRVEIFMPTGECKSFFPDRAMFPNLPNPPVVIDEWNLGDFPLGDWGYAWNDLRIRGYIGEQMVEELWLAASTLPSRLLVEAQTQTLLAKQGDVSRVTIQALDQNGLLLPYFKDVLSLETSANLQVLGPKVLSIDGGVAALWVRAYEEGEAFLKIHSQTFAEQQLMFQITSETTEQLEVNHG
Description: TLC of products. The experiment is classed as biochemical. The following applies: 10 mM potassium phosphate pH 7.5, 30°C, 4 h; positive control enzyme.

Experiment [3] has as its system T3, CL4994.
T3 construct: pET29a (KpnI/XhoI), E. coli BL21(DE3) pLysS, Ni-NTA (vector tags kept); GH2
Nature of the experiment: agarotriose consumption, non-linear regression. The experiment is classed as biochemical, Cohnella sp. LGH. The following applies: 10 mM potassium phosphate pH 7.0, 30°C, 10 min, 0.5–7.5 mg/ml substrate.

For `OC[C@H]1OC(O)[C@H](O)[C@@H](O[C@@H]2O[C@H]3CO[C@@H]([C@@H]2O)[C@@H]3O)[C@H]1O` (stereo partly drawn) [neoagarobiose], in experiment [1], the Km is reported as 4.45 mg ml^–1.

Regarding `OC[C@H]1O[C@@H](O[C@H]2[C@H]3OC[C@@H]2O[C@@H](O[C@H]2[C@@H](O)[C@@H](CO)OC(O)[C@@H]2O)[C@H]3O)[C@H](O)[C@@H](O)[C@H]1O` (stereo partly drawn) [agarotriose], the TLC of products entry in experiment [2] is given as “depolymerization products of agarotriose by the reported ABG AgWH2A”. In addition, the Km in experiment [3] was determined as 3.90 mg ml^–1.
